Source: ChEMBL document CHEMBL5604063, “ASAP - DENV-2 NS2B-NS3 protease fluorescence dose response” (2024)
Several values for one entry are separate records, joined by “and”; a condition that tells them apart may be missing. Equal values may be shown once.

Key:
Genome polyprotein [1] = target: T1, Genome polyprotein (dengue virus type 2, UniProt P29990); assay type: functional, Thailand/16681/1984
Genome polyprotein [2] = target: T1, Genome polyprotein; assay type: functional, Thailand/16681/1984; remark: listed apart in the source

T1 sequence (P29990 1346-1475 limits assumed): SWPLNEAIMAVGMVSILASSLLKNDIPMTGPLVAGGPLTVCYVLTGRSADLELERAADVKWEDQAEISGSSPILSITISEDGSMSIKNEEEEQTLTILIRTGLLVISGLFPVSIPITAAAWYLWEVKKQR
T1 sequence (P29990 1476-2093 limits assumed): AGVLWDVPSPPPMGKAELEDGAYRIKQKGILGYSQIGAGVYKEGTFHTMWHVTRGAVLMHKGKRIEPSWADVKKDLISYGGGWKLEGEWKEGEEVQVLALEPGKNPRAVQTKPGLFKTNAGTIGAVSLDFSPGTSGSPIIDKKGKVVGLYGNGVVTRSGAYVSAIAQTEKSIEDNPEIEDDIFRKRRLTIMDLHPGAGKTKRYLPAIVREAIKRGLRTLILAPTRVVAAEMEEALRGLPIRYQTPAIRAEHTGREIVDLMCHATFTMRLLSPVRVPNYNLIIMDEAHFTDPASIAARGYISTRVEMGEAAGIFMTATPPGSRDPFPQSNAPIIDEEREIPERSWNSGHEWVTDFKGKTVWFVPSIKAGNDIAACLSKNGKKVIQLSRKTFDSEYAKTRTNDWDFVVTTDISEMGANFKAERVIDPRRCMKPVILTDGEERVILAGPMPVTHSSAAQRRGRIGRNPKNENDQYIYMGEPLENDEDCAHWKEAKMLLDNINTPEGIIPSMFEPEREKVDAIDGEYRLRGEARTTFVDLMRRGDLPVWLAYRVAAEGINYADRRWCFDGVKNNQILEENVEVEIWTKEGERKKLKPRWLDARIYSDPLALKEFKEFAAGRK

| Compound | IC50 (Genome polyprotein [1]) | IC50 (Genome polyprotein [2]) |
| --- | --- | --- |
| O=C(Nc1cc(Cl)cc(C(=O)NCCc2nnn[nH]2)c1)OCc1ccccc1 | > 99.5 µM | > 100 µM |
| Cc1c(C(=O)Nc2cccc(-n3nn[nH]c3=O)c2)cc(C2CC2)n1C | > 99.5 µM | > 100 µM |
| NCc1cccc(N[C@H](C#CCO)c2cc(Cl)cc(NC(=O)OCc3ccccc3)c2)c1 | 93.8 µM | > 100 µM |
| N#Cc1ccc(CN)cc1NC(=O)c1cc(Cl)cc(NC(=O)OCc2ccccc2)c1 | > 99.5 µM | > 100 µM |
| COc1c(C(=O)N(C)C)cc(Cl)cc1S(=O)(=O)Nc1cccc(-c2nnn[nH]2)c1 | > 99.5 µM | > 100 µM |
| Cc1nc(-c2ccc(Cl)cc2)sc1C(=O)Nc1cccc(CN)c1 | > 99.5 µM | > 100 µM |
| CC[C@H](Cc1nnn[nH]1)c1ccc(NC(=O)c2cc(Cl)cc(SC)c2)cc1 | 67.2 µM | 40.6 µM |
| O=C(Nc1cccc(-c2nnn[nH]2)c1)c1cc(Cl)cc2[nH]ncc12 | > 99.5 µM | > 100 µM |
| CCn1c(=O)c(N2CC[C@H](CO)C2)nc2ccc(C(=O)NS(C)(=O)=O)cc21 | > 99.5 µM | > 100 µM |
| Cc1c(C(=O)Nc2cccc([C@H]3CCNC3)c2)cc(C2CC2)n1C | > 99.5 µM | > 100 µM |
| NCc1ccc2c(c1)[C@H]1OCCC[C@H]1[C@H](c1cc(Cl)cc(NC(=O)OCc3ccccc3)c1)N2 | 17.6 µM and 15.9 µM | 33.9 µM and 45.8 µM |
| CC[C@H](Cc1nnn[nH]1)c1ccc(NC(=O)c2cc(Cl)cc(-n3cccc3)c2)cc1 | 26.4 µM | 14.7 µM and 20.9 µM |
| O=S(=O)(Nc1cccc(-c2nnn[nH]2)c1)c1cc(Cl)cc(-c2ccccc2)c1 | 35.8 µM | 16.4 µM and 28.4 µM |
| N#Cc1cc(Cl)cc(S(=O)(=O)Nc2cccc(-c3nnn[nH]3)c2)c1 | > 99.5 µM | > 100 µM |
| Cc1c(C(=O)Nc2cccc(CCN)c2)cc(C2CC2)n1C | > 99.5 µM | > 100 µM |
| O=C(Nc1cc(Cl)cc(C(=O)Nc2cccc(-c3cn[nH]n3)c2)c1)OCc1ccccc1 | 55.7 µM | > 100 µM |
| Cc1ccc(NC(=O)c2cc(C3CC3)n(C)c2C)cc1CN | > 99.5 µM | > 100 µM |
| CC[C@H](Cc1nnn[nH]1)c1ccc(NC(=O)c2cc(Cl)cc3[nH]ncc23)cc1 | > 99.5 µM | > 100 µM |
| Nc1cccc(NC(=O)c2cc(Cl)cc(NC(=O)OCc3ccccc3)c2)c1 | > 99.5 µM | > 100 µM |
| CCc1nc(C(=O)Nc2cccc(CN)c2)nn1-c1c(Cl)cccc1Cl | > 99.5 µM | > 100 µM |
| CC(C)c1nc2c(C(=O)Nc3cccc(-c4nnn[nH]4)c3)cccc2[nH]1 | > 99.5 µM | > 100 µM |
| N#Cc1cc(Cl)cc(C(=O)Nc2cccc(-n3nn[nH]c3=O)c2)c1 | > 99.5 µM | > 100 µM |
| COC(=O)c1cc(Cl)cc([C@@H]2CN(Cc3ccccc3)C[C@H]2c2cccc(CN)c2)c1 | > 99.5 µM | > 100 µM |
| O=S(=O)(Nc1cccc(-c2nnn[nH]2)c1)c1cc(Cl)cc2c1OCC2 | > 99.5 µM | > 100 µM |
| Cn1nnnc1-c1cccc(NC(=O)c2cc(Cl)cc(NC(=O)OCc3ccccc3)c2)c1 | > 99.5 µM | > 100 µM |
| O=C1Cc2cc(NC(=O)c3cc(Cl)cc(NC(=O)OCc4ccccc4)c3)ccc2N1 | > 99.5 µM | > 100 µM |
| Nc1nc2ccc(NC(=O)c3cc(Cl)cc(NC(=O)OCc4ccccc4)c3)cc2[nH]1 | > 99.5 µM | > 100 µM |

| Compound | IC50 (Genome polyprotein [1]) | IC50 (Genome polyprotein [2]) |
| --- | --- | --- |
| CSc1cc(Cl)cc(C(=O)Nc2cccc(-n3nn[nH]c3=O)c2)c1 | > 99.5 µM | 78.2 µM |
| CCNC(=O)Nc1cc(Cl)cc(C(=O)Nc2ccc([C@H](CC)Cc3nnn[nH]3)cc2)c1 | > 99.5 µM | > 100 µM |
| CNC(=O)[C@H](Nc1cccc(N)n1)c1cc(Cl)cc(CNC(=O)OC(C)(C)C)c1 | > 99.5 µM | > 100 µM |
| O=C(Nc1cc(Cl)cc(C(=O)Nc2cc(Br)cc(-c3nnn[nH]3)c2)c1)OCc1ccccc1 | 5.85 µM | 4.76 µM and 6.21 µM |
| Cc1onc(C(=O)Nc2cccc(CN)c2)c1CN1CCCC1 | > 99.5 µM | > 100 µM |
| Nc1cccc(NC(=O)c2cc(Cl)cc(NC(=O)OCc3ccccc3)c2)n1 | > 99.5 µM | > 100 µM |
| COC(=O)c1cc(NC(=O)c2cc(Cl)cc(NC(=O)OCc3ccccc3)c2)cc(-c2nnn[nH]2)c1 | 6.17 µM | 5.42 µM and 6.24 µM |
| N#Cc1cc(CN)cc(NC(=O)c2cc(Cl)cc(NC(=O)OCc3ccccc3)c2)c1 | > 99.5 µM | > 100 µM |
| O=S(=O)(Nc1cccc(-c2nnn[nH]2)c1)c1cc(Cl)cc(C(F)(F)F)c1 | > 99.5 µM | > 100 µM |
| CC[C@H](Cc1nn[nH]n1)c1ccc(N[C@H](C(=O)NC)c2cc(Cl)cc(NC(=O)OCc3ccccc3)c2)cc1 | 29.2 µM | 15.4 µM and 25.1 µM |
| O=C(Nc1cc(Cl)cc(C(=O)NCCCc2nnn[nH]2)c1)OCc1ccccc1 | > 99.5 µM | > 100 µM |
| C=CC[C@H](Nc1cccc(CN)n1)c1cc(Cl)cc(NC(=O)OCc2ccccc2)c1 | > 99.5 µM | > 100 µM |
| O=C(Nc1cc(Cl)cc(C(=O)NC2(c3nn[nH]n3)CCCC2)c1)OCc1ccccc1 | > 99.5 µM | > 100 µM |
| O=C(Nc1cc(Cl)cc(C(=O)Nc2ccc(-n3nn[nH]c3=O)cc2)c1)OCc1ccccc1 | 13.3 µM and 14.1 µM | 7.45 µM and 7.74 µM |
| CC(C)[C@H](NC(=O)c1cc(Cl)cc(NC(=O)OCc2ccccc2)c1)c1nn[nH]n1 | > 99.5 µM | 61.3 µM and 41.1 µM and 39.5 µM and 56.3 µM and 58.4 µM |
| CC[C@H](Cc1nnn[nH]1)c1ccc(NC(=O)c2cc(Cl)cc(C#N)c2)cc1 | > 99.5 µM | > 100 µM |
| Cc1cc(CN)cc(NC(=O)c2cc(C3CC3)n(C)c2C)c1 | > 99.5 µM | > 100 µM |
| Cc1c(C(=O)Nc2cccc([C@@H](C)N)c2)cc(C2CC2)n1C | > 99.5 µM | > 100 µM |
| Cn1cc(C(=O)Nc2cccc(CN)c2)c(-c2cnccn2)n1 | > 99.5 µM | > 100 µM |
| N#Cc1cc(Cl)cc(C(=O)Nc2cccc(-c3nnn[nH]3)c2)c1 | > 99.5 µM | > 100 µM |
| CNC(=O)[C@H](Nc1cccc(CN)c1)c1cc(Cl)cc(NC(=O)OCc2ccccc2)c1 | > 99.5 µM | > 100 µM |
| CC[C@H](Cc1nnn[nH]1)c1ccc(NC(=O)[C@H]2[C@H]3CCCCC[C@H]3[C@H]2NC(=O)OCc2ccccc2)cc1 | 22.9 µM | 13 µM and 16.4 µM |
| O=C(Nc1cccc(-n2nn[nH]c2=O)c1)c1cc(Cl)cc2c1CCC2 | > 99.5 µM | > 100 µM |
| O=C(Nc1cc(Cl)cc(C(=O)Nc2ccc([C@H]3CCCNC3)cc2)c1)OCc1ccccc1 | 68.4 µM | > 100 µM |
| CCNC(=O)Nc1cc(Cl)cc(C(=O)Nc2cc(CCCN)ccc2F)c1 | > 99.5 µM | > 100 µM |
| O=C(Nc1cccc(-c2nnn[nH]2)c1)c1cc(Cl)cc(C2CC2)c1 | 82.9 µM | 39.7 µM and 43.5 µM |
| CCNC(=O)Nc1cc(Cl)cc(C(=O)Nc2cccc(-c3nn[nH]n3)c2)c1 | > 99.5 µM | > 100 µM |

| Compound | IC50 (Genome polyprotein [1]) | IC50 (Genome polyprotein [2]) |
| --- | --- | --- |
| CCc1cc(C(=O)Nc2cccc(-n3nn[nH]c3=O)c2)sc1-c1ccc(Cl)cc1 | 11.3 µM and 12.9 µM | 10.5 µM and 12.2 µM |
| Cc1c(C(=O)Nc2cc(CCCN)ccn2)cc(C2CC2)n1C | 74.6 µM and 35.9 µM | > 100 µM |
| COC(=O)c1cc(CN)cc([C@@H]2C[C@H]2c2cc(Cl)cc(NC(=O)OCc3ccccc3)c2)c1 | > 99.5 µM | > 100 µM |
| Cc1ccc(-c2nnn[nH]2)cc1NC(=O)c1cc(Cl)cc(NC(=O)OCc2ccccc2)c1 | 18.4 µM | 9.21 µM and 13.1 µM |
| O=C(Nc1cc(Cl)cc(C(=O)N[C@H](c2nn[nH]n2)C2CNC2)c1)OCc1ccccc1 | > 99.5 µM | > 100 µM |
| COc1cc(C(=O)Nc2cccc(CN)c2)cc2cn(C)nc12 | > 99.5 µM | > 100 µM |
| Cc1oc(C(=O)Nc2cccc(CN)c2)cc1COc1ccccc1 | > 99.5 µM | > 100 µM |
| Cn1nc(C(=O)Nc2cccc(CN)c2)c2c1CCS(=O)(=O)C2 | > 99.5 µM | > 100 µM |
| O=S(=O)(Nc1cccc(-c2nnn[nH]2)c1)c1cc(F)cc(Cl)c1 | > 99.5 µM | > 100 µM |
| O=C(Nc1cccc(-n2nn[nH]c2=O)c1)c1cc(Cl)cc(N2CCCC2=O)c1 | > 99.5 µM | > 100 µM |
| CNC(=O)[C@H](Nc1cc(Cl)cc(NC(=O)OCc2ccccc2)c1)c1cccc(CN)c1 | > 99.5 µM | > 100 µM |
| N#C[C@H](Nc1cccc(C(=O)O)c1)c1cc(Cl)cc2[nH]ncc12 | > 99.5 µM | > 100 µM |
| CCOC(=O)c1[nH]c(C)c(C(=O)Nc2cccc(CN)c2)c1CC | > 99.5 µM | > 100 µM |
| CC[C@H](Cc1nnn[nH]1)c1ccc(NC(=O)c2cc(Cl)cc3c2CCC3)cc1 | 83.6 µM | 58.8 µM |
| Cc1c(C(=O)Nc2ccc3c(c2)CNCCO3)cc(C2CC2)n1C | > 99.5 µM | > 100 µM |
| O=C(Nc1cc(Cl)cc(C(=O)Nc2ccc3c(c2)C(=O)NC3)c1)OCc1ccccc1 | > 99.5 µM | > 100 µM |
| CC[C@H](Cc1nnn[nH]1)c1ccc(NC(=O)c2cc(Cl)cc(C3CC3)c2)cc1 | 55.2 µM | 28.7 µM and 35.1 µM |
| Cc1c(C(=O)Nc2cccc(C3CCNCC3)c2)cc(C2CC2)n1C | > 99.5 µM | > 100 µM |
| N[C@H]1CCc2cc(NC(=O)c3cc(Cl)cc(NC(=O)OCc4ccccc4)c3)ccc21 | 44.7 µM | > 100 µM |
| O=C(N[C@H]1[C@H]2CCCCC[C@H]2[C@H]1C(=O)Nc1cccc(-n2nn[nH]c2=O)c1)OCc1ccccc1 | 27.1 µM | 37.9 µM and 54.6 µM |
| O=C(Nc1cc(Cl)cc(C(=O)Nc2ccc3c(c2)CNC3=O)c1)OCc1ccccc1 | > 99.5 µM | > 100 µM |
| NCc1ccc2c(c1)[C@H](N1CCCC1=O)C[C@H](c1cc(Cl)cc(NC(=O)OCc3ccccc3)c1)N2 | > 99.5 µM | 75.5 µM |
| Cc1c(C(=O)Nc2n[nH]c3c2CNC3)cc(C2CC2)n1C | > 99.5 µM | > 100 µM |
| Cc1c(C(=O)Nc2ccc(CCN)cc2)cc(C2CC2)n1C | > 99.5 µM | > 100 µM |
| CC[C@H](Cc1nnn[nH]1)c1ccc(NC(=O)c2cc(Cl)cc(Cl)c2OC)cc1 | > 99.5 µM | > 100 µM |
| CCNC(=O)Nc1cc(Cl)cc(C(=O)O)c1 | > 99.5 µM | > 100 µM |
